# Data published in ChEMBL document CHEMBL1201862, “PubChem BioAssay data set” (2004).
#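 1) Cells in 96-well plates. 2) Compound, 48 h, 5 concentrations. 3) Linear interpolation between surrounding doses. 4) Unreached endpoint = highest concentration. At the GI50, growth is halved.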 Activity calls are given as the source filed them. Rule as the data show it: active = GI50 up to about 1.1 µM and inactive = higher.
# Key:
# Experiment in all cases: NCI tumour cell line growth inhibition, 48 h
# [1] = tested on: SNB-75
# [2] = tested on: MOLT-4
# [3] = tested on: EKVX
# [4] = tested on: A549
# [5] = tested on: OVCAR-5
# [6] = tested on: UACC-257
# [7] = tested on: UACC-62
# [8] = tested on: SF-268
# [9] = tested on: KM12
# [10] = tested on: OVCAR-4
# [11] = tested on: DLD-1
# [12] = tested on: HOP-92
# [13] = tested on: SNB-78
# [14] = tested on: M14
# [15] = tested on: DMS-273
# [16] = tested on: OVCAR-3
# [17] = tested on: XF498
# [18] = tested on: CAKI-1
# [19] = tested on: OVCAR-8
# [20] = tested on: U-251
# [21] = tested on: HCC 2998
# [22] = tested on: CCRF-CEM
# [23] = tested on: HOP-62
# [24] = tested on: SF-295
# [25] = tested on: K562
# [26] = tested on: NCI-H23
# [27] = tested on: SW-620
# [28] = tested on: UO-31
# [29] = tested on: ACHN
# [30] = tested on: COLO 205
# [31] = tested on: 786-0
# [32] = tested on: SN12C
# [33] = tested on: NCI-H522
# [34] = tested on: IGROV-1
# [35] = tested on: RXF 631
# [36] = tested on: SK-MEL-5
# [37] = tested on: HCT-15
# [38] = tested on: HT-29
# [39] = tested on: Malme-3M
# [40] = tested on: SK-OV-3
# [41] = tested on: HCT-116
# [42] = tested on: A498
# [43] = tested on: TK-10
# [44] = tested on: SNB-19
# [45] = tested on: SK-MEL-28
# [46] = tested on: KM-20L2
# [47] = tested on: RPMI-8226
# [48] = tested on: NCI-H460
# [49] = tested on: NCI-H226
# [50] = tested on: RXF 393
# [51] = tested on: HOP-18
# [52] = tested on: LOX IMVI
# [53] = tested on: SK-MEL-2
# [54] = tested on: SF-539
# [55] = tested on: HL-60
# [56] = tested on: M19-MEL
# [57] = tested on: DMS-114
# [58] = tested on: LXFL 529
# [59] = tested on: SR
structure (smiles),measurement,setting,value
COc1cc(C(=O)C/C(CCCC(=O)Nc2ccccc2[N+](=O)[O-])=N/NC(=O)c2cc3ccccc3cc2O)ccc1O,GI50,[1],> 91.2 µM (inactive)
same,GI50,[2],26.1 µM (inactive)
same,GI50,[3],16.5 µM (inactive)
same,GI50,[4],54.5 µM (inactive)
same,GI50,[5],46.3 µM (inactive)
same,GI50,[6],27.7 µM (inactive)
same,GI50,[7],17.6 µM (inactive)
same,GI50,[8],23.8 µM (inactive)
same,GI50,[9],24.5 µM (inactive)
same,GI50,[10],38.3 µM (inactive)
same,GI50,[11],36.7 µM (inactive)
same,GI50,[12],32.7 µM (inactive)
same,GI50,[13],> 63.8 µM (inactive)
same,GI50,[14],20.8 µM (inactive)
same,GI50,[15],15.6 µM (inactive)
same,GI50,[16],16.1 µM (inactive)
same,GI50,[17],> 100 µM (inactive)
same,GI50,[18],> 68.9 µM (inactive)
same,GI50,[19],26.8 µM (inactive)
same,GI50,[20],52.1 µM (inactive)
same,GI50,[21],28.9 µM (inactive)
same,GI50,[22],8 µM (inactive)
same,GI50,[23],94.8 µM (inactive)
same,GI50,[24],44.4 µM (inactive)
same,GI50,[25],20.2 µM (inactive)
same,GI50,[26],41.4 µM (inactive)
same,GI50,[27],46.5 µM (inactive)
same,GI50,[28],13.9 µM (inactive)
same,GI50,[29],28.9 µM (inactive)
same,GI50,[30],21.7 µM (inactive)
same,GI50,[31],32.4 µM (inactive)
same,GI50,[32],44 µM (inactive)
same,GI50,[33],36.6 µM (inactive)
same,GI50,[34],34.4 µM (inactive)
same,GI50,[35],> 71.4 µM (inactive)
same,GI50,[36],34.4 µM (inactive)
same,GI50,[37],20.2 µM
same,GI50,[38],41.9 µM (inactive)
same,GI50,[39],29.2 µM (inactive)
same,GI50,[40],49.7 µM (inactive)
same,GI50,[41],34.4 µM (inactive)
same,GI50,[42],> 100 µM (inactive)
same,GI50,[43],52.5 µM (inactive)
same,GI50,[44],> 80.2 µM (inactive)
same,GI50,[45],58.2 µM (inactive)
same,GI50,[46],27.4 µM (inactive)
same,GI50,[47],> 46.9 µM (inactive)
same,GI50,[48],40.6 µM (inactive)
same,GI50,[49],> 81.7 µM (inactive)
same,GI50,[50],> 71 µM (inactive)
same,GI50,[51],6.24 µM (inactive)
same,GI50,[52],23.9 µM (inactive)
same,GI50,[53],> 42.7 µM (inactive)
same,GI50,[54],37.9 µM (inactive)
same,GI50,[55],0.556 µM (active)
Cc1nc2c(sc(=S)n2-c2ccccc2)c2nc3ccccc3n12,GI50,[1],> 100 µM (inactive)
same,GI50,[2],> 100 µM (inactive)
same,GI50,[3],> 100 µM (inactive)
same,GI50,[5],> 100 µM (inactive)
same,GI50,[6],> 100 µM (inactive)
same,GI50,[7],> 100 µM (inactive)
same,GI50,[8],> 100 µM (inactive)
same,GI50,[9],> 100 µM (inactive)
same,GI50,[10],> 100 µM (inactive)
same,GI50,[11],> 100 µM (inactive)
same,GI50,[13],> 100 µM (inactive)
same,GI50,[14],> 100 µM (inactive)
same,GI50,[15],> 100 µM (inactive)
same,GI50,[16],> 100 µM (inactive)
same,GI50,[18],> 100 µM (inactive)
same,GI50,[19],> 100 µM (inactive)
same,GI50,[20],> 100 µM (inactive)
same,GI50,[21],> 100 µM (inactive)
same,GI50,[22],> 100 µM (inactive)
same,GI50,[23],> 100 µM (inactive)
same,GI50,[24],> 100 µM (inactive)
same,GI50,[56],> 100 µM (inactive)
same,GI50,[25],> 100 µM (inactive)
same,GI50,[26],> 100 µM (inactive)
same,GI50,[28],> 100 µM (inactive)
same,GI50,[29],> 100 µM (inactive)
same,GI50,[30],> 100 µM (inactive)
same,GI50,[31],> 100 µM (inactive)
same,GI50,[32],> 100 µM (inactive)
same,GI50,[33],> 100 µM (inactive)
same,GI50,[34],> 100 µM (inactive)
same,GI50,[35],> 100 µM (inactive)
same,GI50,[37],> 100 µM
same,GI50,[38],> 100 µM (inactive)
same,GI50,[39],> 100 µM (inactive)
same,GI50,[40],> 100 µM (inactive)
same,GI50,[42],> 10 µM (inactive)
same,GI50,[43],> 100 µM (inactive)
same,GI50,[57],> 100 µM (inactive)
same,GI50,[44],> 100 µM (inactive)
same,GI50,[45],> 100 µM (inactive)
same,GI50,[47],> 100 µM (inactive)
same,GI50,[58],> 100 µM (inactive)
same,GI50,[49],> 100 µM (inactive)
same,GI50,[50],> 100 µM (inactive)
same,GI50,[51],> 100 µM (inactive)
same,GI50,[52],> 100 µM (inactive)
same,GI50,[53],> 100 µM (inactive)
same,GI50,[54],> 100 µM (inactive)
same,GI50,[55],> 100 µM (inactive)
O=c1c2ccccc2c2c3c1cccc3c1cccc3c(=O)c4ccccc4c2c31,GI50,[1],> 100 µM (inactive)
same,GI50,[2],46.3 µM (inactive)
same,GI50,[3],> 100 µM (inactive)
same,GI50,[4],> 100 µM (inactive)
same,GI50,[5],> 100 µM (inactive)
same,GI50,[6],> 100 µM (inactive)
same,GI50,[7],> 100 µM (inactive)
same,GI50,[8],> 100 µM (inactive)
same,GI50,[9],> 100 µM (inactive)
same,GI50,[10],> 100 µM (inactive)
same,GI50,[11],> 100 µM (inactive)
same,GI50,[12],> 100 µM (inactive)
same,GI50,[13],> 100 µM (inactive)
same,GI50,[14],> 100 µM (inactive)
same,GI50,[15],> 100 µM (inactive)
same,GI50,[16],> 100 µM (inactive)
same,GI50,[18],> 100 µM (inactive)
same,GI50,[19],> 100 µM (inactive)
same,GI50,[20],> 100 µM (inactive)
same,GI50,[21],> 100 µM (inactive)
same,GI50,[22],> 100 µM (inactive)
same,GI50,[23],> 100 µM (inactive)
same,GI50,[24],> 100 µM (inactive)
same,GI50,[56],> 100 µM (inactive)
same,GI50,[25],> 100 µM (inactive)
same,GI50,[26],> 100 µM (inactive)
same,GI50,[27],> 100 µM (inactive)
same,GI50,[28],> 100 µM (inactive)
same,GI50,[29],> 100 µM (inactive)
same,GI50,[30],> 100 µM (inactive)
same,GI50,[31],> 100 µM (inactive)
same,GI50,[32],> 100 µM (inactive)
same,GI50,[33],> 100 µM (inactive)
same,GI50,[34],> 100 µM (inactive)
same,GI50,[35],> 100 µM (inactive)
same,GI50,[36],> 100 µM (inactive)
same,GI50,[37],> 100 µM
same,GI50,[38],> 100 µM (inactive)
same,GI50,[39],> 100 µM (inactive)
same,GI50,[40],> 100 µM (inactive)
same,GI50,[41],> 100 µM (inactive)
same,GI50,[42],> 100 µM (inactive)
same,GI50,[43],> 100 µM (inactive)
same,GI50,[57],> 100 µM (inactive)
same,GI50,[44],> 100 µM (inactive)
same,GI50,[45],> 100 µM (inactive)
same,GI50,[46],> 100 µM (inactive)
same,GI50,[58],> 100 µM (inactive)
same,GI50,[48],> 100 µM (inactive)
same,GI50,[49],> 100 µM (inactive)
same,GI50,[50],> 100 µM (inactive)
same,GI50,[51],> 100 µM (inactive)
same,GI50,[59],> 100 µM (inactive)
same,GI50,[52],> 100 µM (inactive)
same,GI50,[53],> 100 µM (inactive)
same,GI50,[54],> 100 µM (inactive)
same,GI50,[55],> 10 µM (inactive)
